Source: patent publication US11571423B2, “Small molecule modulators of human sting” (Curadev Pharma Limited, priority 2017, dated 2023)
Read-outs that look alike come from different tables or passages of the source.

Experiments:
NF-κB pathway = assay: Reporter gene expression assay in THP1-Dual cells, NFkB axis (secreted SEAP); assay type: cell-based, human; conditions: 20 hr stimulation, EC50 range class, read-out: THP-NFκB activity
Method: (§1) THP1-Dual™ cells (Invivogen) were derived from the human THP-1 monocyte cell line by stable integration of two inducible reporter constructs. As a result, THP1-Dual™ cells allow the simultaneous study of the NF-κB pathway, by monitoring the activity of secreted SEAP, and the IRF pathway, by assessing the activity of a secreted luciferase (Lucia). 5×10^5 THP1-Dual™ cells were seeded in 384-well plates in growth medium and stimulated with novel compounds. After 20 hr of stimulation supernatants were removed and reporter proteins were readily measured in the cell culture supernatant using QUANTI-Blue™ (Invivogen), a SEAP detection reagent, and QUANTI-Luc™ (Invivogen), a luciferase detection reagent on a Spectramax i3X luminometer.
(§2) EC50 value ranges for exemplary compounds tested in the above assay are given.

hSTING(HAQ) = hSTING(HAQ) (Homo sapiens, UniProt Q86WV6, G230A/H232R/R293Q/R71H); assay: Luciferase reporter assay in HEK293T-hSTING-Luciferase cells, HAQ polymorph; assay type: cell-based; conditions: HAQ polymorph of human STING, EC50 range class
hSTING(HAQ), sequence (Q86WV6 whole entry R71H/G230A/H232R/R293Q): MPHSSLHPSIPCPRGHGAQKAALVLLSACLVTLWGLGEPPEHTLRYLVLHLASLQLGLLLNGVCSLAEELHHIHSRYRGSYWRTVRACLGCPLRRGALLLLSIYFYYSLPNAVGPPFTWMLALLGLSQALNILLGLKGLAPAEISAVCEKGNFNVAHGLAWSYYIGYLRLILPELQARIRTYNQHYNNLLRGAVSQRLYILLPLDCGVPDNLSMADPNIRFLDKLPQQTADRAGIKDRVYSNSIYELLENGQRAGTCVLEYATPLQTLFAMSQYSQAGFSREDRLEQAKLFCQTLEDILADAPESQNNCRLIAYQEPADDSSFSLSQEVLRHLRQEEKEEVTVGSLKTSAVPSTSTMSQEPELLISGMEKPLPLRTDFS
Text: (§3) Stable Cell Line Generation • a) Stable STING expressing cells—Stable HEK293T STING-expressing cell lines were generated using plasmids purchased from Invivogen, CA, USA, that contain STING cDNA cloned into the pUNO-1 vector under hEF1-HTLV promoter and containing the Blasticidin selection cassette. The plasmids hSTING(R232), hSTING(H232), hSTING(HAQ) were directly procured from Invivogen while hSTING (AQ) and hSTING (Q) were derived from hSTING(HAQ) and hSTING (R232) plasmids respectively by using a PCR based site directed mutagenesis method. These vectors were individually transfected into HEK293T cells using Lipofectamine (Invitrogen) and transfected cells were selected under Blasticidin selection. These transfected cells were further subjected to clonal selection using the limiting dilution method to obtain clonally pure populations of HEK cells transfected with each of the above mentioned human STING variants. Only those clones were selected in which ligand independent activation of STING was minimal. • b) Stable Luciferase reporter gene expressing cells—Stable HEK293T Luciferase reporter gene expressing cell lines were generated using pCDNA4 plasmids under an IRF-inducible promoter. This promoter is comprised of five tandem interferon-stimulated response elements (ISRE) fused to an ISG54 minimal promoter. This vector was transfected into HEK293T cells using Lipofectamine (Invitrogen) and transfected cells were selected under Zeocin selection. These transfected cells were further subjected to clonal selection using the limiting dilution method to obtain clonally pure populations of HEK cells transfected the Luciferase reporter construct. Only those clones were selected in which ligand independent induction of luciferase was minimal.
(§4) 5×10^5 clonally selected HEK293T-hSTING-Luciferase cells were seeded in 384-well plates in growth medium and stimulated with novel compounds. After 20 hr of stimulation supernatant were removed and secretary reporter gene activity were measured using the Quanti-Luc detection system (Invivogen) on a Spectramax i3X luminometer.
(§5) In the tables below, EC50 value ranges for exemplary compounds are given.
(§6) Single nucleotide polymorphisms of human STING have been described, which can affect the functional potency of compounds that modulate the activity of the STING protein (see Yi et. al., PLoS One, October 2013, 8(10), e77846). The 5 major polymorphisms of human STING are shown in FIG. 1, with their prevalence in human populations indicated.
(§7) The tables below show the potency of selected compounds of the invention against the most common polymorphisms.

hSTING(H232) = hSTING(H232) (Homo sapiens, UniProt Q86WV6); assay: Luciferase reporter assay in HEK293T-hSTING-Luciferase cells, H232/REF polymorph; assay type: cell-based; conditions: H232/REF polymorph of human STING, EC50 range class
hSTING(H232), sequence (Q86WV6 whole entry): as the sequence (Q86WV6 whole entry R71H/G230A/H232R/R293Q) above, with H71R, A230G, R232H, Q293R counted along it
Text: as §3, §4, §5, §6, §7

hSTING(R232) = hSTING(R232) (Homo sapiens, UniProt Q86WV6, H232R); assay: Luciferase reporter assay in HEK293T-hSTING-Luciferase cells, R232 (wild type) human STING; assay type: cell-based; conditions: 20 hr stimulation, read-out: R232 human activity (EC50 range)
hSTING(R232), sequence (Q86WV6 whole entry H232R, the tested form may be a part): as the sequence (Q86WV6 whole entry R71H/G230A/H232R/R293Q) above, with H71R, A230G, Q293R counted along it
Outline: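 After 20 hr compound stimulation of 5×10^5 cells, secreted luciferase in the supernatant was measured by luminescence; values are fold-induction over baseline and EC50. The line is a clonal HEK293T stably carrying a STING plasmid (pUNO-1) and a luciferase reporter under five tandem ISREs fused to an ISG54 promoter.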

IRF pathway = assay: Reporter gene expression assay in THP1-Dual cells, IRF axis (secreted Lucia luciferase); assay type: cell-based, human; conditions: 20 hr stimulation, EC50 range class, read-out: THP-IRF activity
Method: as §1, §2

SMILES | EC50 (NF-κB pathway; Homo sapiens) | EC50 (hSTING(HAQ)) | EC50 (hSTING(H232)) | EC50 (hSTING(R232)) | EC50 (IRF pathway; Homo sapiens) | EC50 (NF-κB pathway) | EC50 (IRF pathway)
C[C@H]1c2ccc(C(=O)NCc3c(F)cc(F)cc3F)cc2N(Cc2cc(CO)ccc2F)C(=O)N1C (stereo in doubt) [Example 268, 1-(2-fluoro-5-(hydroxymethyl)benzyl)-3,4-dimethyl-2-oxo-N-(2,4,6-trifluorobenzyl)-1,2,3,4-tetrahydroquinazoline-7-carboxamide] | 1000 to 10000 nM | 1000 to 10000 nM | 1000 to 10000 nM | < 1000 nM | 1000 to 10000 nM | – | –
Cc1ncc(CN2C(=O)N(C)Cc3ccc(C(=O)NCc4c(F)cc(F)cc4F)cc32)s1 [Example 20, 3-methyl-1-((2-methylthiazol-5-yl)methyl)-2-oxo-N-(2,4,6-trifluorobenzyl)-1,2,3,4-tetrahydroquinazoline-7-carboxamide] | 1000 to 10000 nM | 1000 to 10000 nM | 1000 to 10000 nM | 1000 to 10000 nM | 1000 to 10000 nM | – | –
Cc1cccc(-c2nc(CN3C(=O)N(C)Cc4ccc(C(=O)NCc5c(F)cc(F)cc5F)cc43)c(C)o2)c1 [Example 38, 3-methyl-1-((5-methyl-2-(m-tolyl)oxazol-4-yl)methyl)-2-oxo-N-(2,4,6-trifluorobenzyl)-1,2,3,4-tetrahydroquinazoline-7-carboxamide] | 1000 to 10000 nM | 1000 to 10000 nM | 1000 to 10000 nM | < 1000 nM | > 10000 nM | – | –
CN1Cc2ccc(C(=O)NCc3c(F)cc(F)cc3F)cc2N(Cc2c(F)cccc2C#N)C1=O [Example 39, 1-(2-cyano-6-fluorobenzyl)-3-methyl-2-oxo-N-(2,4,6-trifluorobenzyl)-1,2,3,4-tetrahydroquinazoline-7-carboxamide] | > 10000 nM | > 10000 nM | > 10000 nM | 1000 to 10000 nM | > 10000 nM | – | –
Cc1cc(CN2C(=O)N(C)Cc3ccc(C(=O)NCc4c(F)cc(F)cc4F)cc32)on1 [Example 54, 3-methyl-1-((3-methylisoxazol-5-yl)methyl)-2-oxo-N-(2,4,6-trifluorobenzyl)-1,2,3,4-tetrahydroquinazoline-7-carboxamide] | 1000 to 10000 nM | 1000 to 10000 nM | 1000 to 10000 nM | 1000 to 10000 nM | 1000 to 10000 nM | – | –
CC1c2ncc(C(=O)NCc3c(F)cc(F)cc3F)cc2N(Cc2c(F)cccc2Cl)C(=O)N1C (stereo not drawn) [Example 148, 1-(2-Chloro-6-fluorobenzyl)-3,4-dimethyl-2-oxo-N-(2,4,6-trifluorobenzyl)-1,2,3,4-tetrahydropyrido[3,2-d]pyrimidine-7-carboxamide] | 1000 to 10000 nM | < 1000 nM | < 1000 nM | < 1000 nM | 1000 to 10000 nM | – | –
COc1cccc(F)c1CN1C(=O)N(C)C(C)c2ccc(C(=O)NCc3c(F)cc(F)cc3F)cc21 (stereo not drawn) [Example 153, 1-(2-fluoro-6-methoxybenzyl)-3,4-dimethyl-2-oxo-N-(2,4,6-trifluorobenzyl)-1,2,3,4-tetrahydroquinazoline-7-carboxamide] | < 1000 nM | < 1000 nM | < 1000 nM | < 1000 nM | < 1000 nM | – | –
CC1c2ccc(C(=O)NCc3c(F)cc(F)cc3F)cc2N(Cc2cc(C(N)=O)ccc2F)C(=O)N1C (stereo not drawn) [Example 167, 1-(5-carbamoyl-2-fluorobenzyl)-3,4-dimethyl-2-oxo-N-(2,4,6-trifluorobenzyl)-1,2,3,4-tetrahydroquinazoline-7-carboxamide] | > 10000 nM | > 10000 nM | > 10000 nM | < 1000 nM | > 10000 nM | – | –
CNc1cccc(F)c1CN1C(=O)N(C)C(C)c2ccc(C(=O)NCc3c(F)cc(F)cc3F)cc21 (stereo not drawn) [Example 174, 1-(2-fluoro-6-(methylamino)benzyl)-3,4-dimethyl-2-oxo-N-(2,4,6-trifluorobenzyl)-1,2,3,4-tetrahydroquinazoline-7-carboxamide] | 1000 to 10000 nM | < 1000 nM | < 1000 nM | < 1000 nM | 1000 to 10000 nM | – | –
CC1c2ccc(C(=O)NCc3c(F)cc(F)cc3F)cc2N(Cc2c(F)cccc2N(C)C)C(=O)N1C (stereo not drawn) [Example 175, 1-(2-(dimethylamino)-6-fluorobenzyl)-3,4-dimethyl-2-oxo-N-(2,4,6-trifluorobenzyl)-1,2,3,4-tetrahydroquinazoline-7-carboxamide] | > 10000 nM | 1000 to 10000 nM | 1000 to 10000 nM | 1000 to 10000 nM | > 10000 nM | – | –
COC(=O)c1ccc(F)c(CN2C(=O)N(C)[C@@H](C)c3ccc(C(=O)NCc4c(F)cc(F)cc4F)cc32)c1Cl [Example 185, (S)-methyl 2-chloro-3-((3,4-dimethyl-2-oxo-7-((2,4,6-trifluorobenzyl)carbamoyl)-3,4-dihydroquinazolin-1(2H)-yl)methyl)-4-fluorobenzoate] | 1000 to 10000 nM | < 1000 nM | < 1000 nM | < 1000 nM | 1000 to 10000 nM | – | –
CC1c2ccc(C(=O)NCc3c(F)cc(F)cc3F)cc2N(Cc2c(F)cccc2Br)C(=O)N1C (stereo not drawn) [Example 193, 1-(2-bromo-6-fluorobenzyl)-3,4-dimethyl-2-oxo-N-(2,4,6-trifluorobenzyl)-1,2,3,4-tetrahydroquinazoline-7-carboxamide] | < 1000 nM | < 1000 nM | < 1000 nM | – | < 1000 nM | – | –
CC1c2ccc(C(=O)NCc3c(F)cc(F)cc3F)cc2N(Cc2c(F)cccc2C(F)(F)F)C(=O)N1C (stereo not drawn) [Example 196, 1-(2-fluoro-6-(trifluoromethyl)benzyl)-3,4-dimethyl-2-oxo-N-(2,4,6-trifluorobenzyl)-1,2,3,4-tetrahydroquinazoline-7-carboxamide] | < 1000 nM | < 1000 nM | < 1000 nM | < 1000 nM | < 1000 nM | – | –
Cc1cccc(F)c1CN1C(=O)N(C)C(C)c2ccc(C(=O)NCc3c(F)cc(F)cc3F)cc21 (stereo not drawn) [Example 203, 1-(2-fluoro-6-methylbenzyl)-3,4-dimethyl-2-oxo-N-(2,4,6-trifluorobenzyl)-1,2,3,4-tetrahydroquinazoline-7-carboxamide] | – | < 1000 nM | < 1000 nM | < 1000 nM | – | < 1000 nM | < 1000 nM
CC1c2ccc(C(=O)NCc3c(F)cc(F)cc3F)cc2N(Cc2c(F)cccc2OS(C)(=O)=O)C(=O)N1C (stereo not drawn) [Example 204, 2-((3,4-dimethyl-2-oxo-7-((2,4,6-trifluorobenzyl)carbamoyl)-3,4-dihydroquinazolin-1(2H)-yl)methyl)-3-fluorophenyl methanesulfonate] | > 10000 nM | 1000 to 10000 nM | 1000 to 10000 nM | < 1000 nM | > 10000 nM | – | –
Cc1cc(CN2C(=O)N(C)C(C)c3ccc(C(=O)NCc4c(F)cc(F)cc4F)cc32)ccn1 (stereo not drawn) [Example 208, 3,4-dimethyl-1-((2-methylpyridin-4-yl)methyl)-2-oxo-N-(2,4,6-trifluorobenzyl)-1,2,3,4-tetrahydroquinazoline-7-carboxamide] | 1000 to 10000 nM | < 1000 nM | < 1000 nM | < 1000 nM | 1000 to 10000 nM | – | –
Cc1ccc(CNC(=O)c2ccc3c(c2)N(Cc2c(F)cccc2Cl)C(=O)N(C)C3C)o1 (stereo not drawn) [Example 212, 1-(2-chloro-6-fluorobenzyl)-3,4-dimethyl-N-((5-methylfuran-2-yl)methyl)-2-oxo-1,2,3,4-tetrahydroquinazoline-7-carboxamide] | > 10000 nM | 1000 to 10000 nM | 1000 to 10000 nM | < 1000 nM | > 10000 nM | – | –
